# According to patent publication US5314877A, “Water-soluble pentacyclic triterpene composition and method for producing the same” (Hokkaido Sugar Co., Ltd., priority 1990, dated 1994):
# Entries after “also recorded” stand apart in the source; their conditions may differ.
# Assay: Pharmacological function of triterpenes (earlier experiments and reports)
# Settings: inventors' experiments, no data given
smiles,measurement,value
"CC1(C)CC[C@]2(C(=O)O)CC[C@]3(C)C(=CC[C@@H]4[C@@]5(C)CC[C@H](O)C(C)(C)[C@@H]5CC[C@]43C)[C@@H]2C1 [oleanolic acid, Oleanolic acid]",Pharmacological function of oleanolic acid from sugar beet,antibiosis to a tumor and hepatitis; also recorded: cariostatic (insoluble glucanynthesis inhibition)
